Measured values published in US20220281841A1, “ETHYNYLHETEROCYCLES AS RHO-ASSOCIATED COILED-COIL KINASE (ROCK) INHIBITORS” (Angion Biomedica Corp., priority 2019, published 2022).
Counter-ions that a name gives are not always drawn.

Assays:
[1] = biological target: T1, ROCK1 (Homo sapiens, UniProt Q13464); test: ROCK1 kinase binding affinity, DiscoverX KINOMEscan KdELECT; settings: equilibrium dissociation constant, 11-point 3-fold dilution series
T1 construct: purchased DiscoverX (KINOMEscan KdELECT service); host or cells: E. coli BL21-derived (T7 phage) or HEK-293
T1 sequence (Q13464 whole entry): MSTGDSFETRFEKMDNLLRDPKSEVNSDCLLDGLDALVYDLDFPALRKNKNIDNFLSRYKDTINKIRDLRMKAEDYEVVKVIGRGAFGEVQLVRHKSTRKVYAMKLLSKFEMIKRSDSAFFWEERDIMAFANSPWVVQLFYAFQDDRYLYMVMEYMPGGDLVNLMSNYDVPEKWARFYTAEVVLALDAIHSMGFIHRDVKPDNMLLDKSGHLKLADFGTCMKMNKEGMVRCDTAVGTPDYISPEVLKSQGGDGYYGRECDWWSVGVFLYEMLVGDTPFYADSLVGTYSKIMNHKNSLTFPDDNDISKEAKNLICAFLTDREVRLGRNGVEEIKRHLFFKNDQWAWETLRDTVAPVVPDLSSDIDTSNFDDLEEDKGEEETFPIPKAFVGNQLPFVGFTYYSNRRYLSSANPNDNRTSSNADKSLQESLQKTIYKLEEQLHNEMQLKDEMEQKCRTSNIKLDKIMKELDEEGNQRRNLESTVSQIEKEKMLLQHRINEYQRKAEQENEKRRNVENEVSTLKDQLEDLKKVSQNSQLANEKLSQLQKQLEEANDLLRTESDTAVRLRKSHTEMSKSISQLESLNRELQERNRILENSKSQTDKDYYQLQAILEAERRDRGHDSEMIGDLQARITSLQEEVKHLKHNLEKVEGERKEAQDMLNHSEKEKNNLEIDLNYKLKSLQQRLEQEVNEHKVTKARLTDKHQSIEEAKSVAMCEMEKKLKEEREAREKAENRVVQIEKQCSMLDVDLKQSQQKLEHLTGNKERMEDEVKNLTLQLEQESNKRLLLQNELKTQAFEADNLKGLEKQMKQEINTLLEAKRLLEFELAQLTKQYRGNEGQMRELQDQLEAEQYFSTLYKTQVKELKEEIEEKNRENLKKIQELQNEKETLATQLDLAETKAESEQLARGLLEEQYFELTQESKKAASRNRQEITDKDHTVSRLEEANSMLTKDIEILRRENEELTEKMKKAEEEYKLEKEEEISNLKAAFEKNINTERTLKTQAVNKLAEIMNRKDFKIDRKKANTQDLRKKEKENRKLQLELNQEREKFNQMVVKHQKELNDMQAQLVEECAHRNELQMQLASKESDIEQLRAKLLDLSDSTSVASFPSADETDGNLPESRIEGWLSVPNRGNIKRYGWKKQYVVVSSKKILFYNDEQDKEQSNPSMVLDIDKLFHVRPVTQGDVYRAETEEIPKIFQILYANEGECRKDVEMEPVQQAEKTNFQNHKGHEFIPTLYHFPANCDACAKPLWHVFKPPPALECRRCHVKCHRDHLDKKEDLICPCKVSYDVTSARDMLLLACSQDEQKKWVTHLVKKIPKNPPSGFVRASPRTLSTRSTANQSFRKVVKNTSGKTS
Method: (§1) 1. ROCK1 and ROCK2 kinase assays: The ROCK1 and ROCK2 kinase binding affinities of compounds in this invention were determined by DiscoverX's KINOMEscan™ KdELECT technology (https://www.discoverx.com/kinomescan-elect-kinase-screening-and-profiling-services): Kinase-tagged T7 phage strains were prepared in an E. coli host derived from the BL21 strain. E. coli were grown to log-phase and infected with T7 phage and incubated with shaking at 32° C. until lysis. The lysates were centrifuged and filtered to remove cell debris. The remaining kinases were produced in HEK-293 cells and subsequently tagged with DNA for qPCR detection. Streptavidin-coated magnetic beads were treated with biotinylated small molecule ligands for 30 minutes at room temperature to generate affinity resins for kinase assays. The liganded beads were blocked with excess biotin and washed with blocking buffer (SeaBlock (Pierce), 1% BSA, 0.05% Tween 20, 1 mM DTT) to remove unbound ligand and to reduce nonspecific binding. […] Test compounds were prepared as 111X stocks in 100% DMSO. Kds were determined using an 11-point 3-fold compound dilution series with three DMSO control points. […] The compounds were then diluted directly into the assays such that the final concentration of DMSO was 0.9%. All reactions performed in polypropylene 384-well plate. Each was a final volume of 0.02 ml. […] The kinase concentration in the eluates was measured by qPCR.

[2] = biological target: T2, ROCK2 (Homo sapiens, UniProt O75116); test: ROCK2 kinase binding affinity, DiscoverX KINOMEscan KdELECT; settings: for ROCK 2 Selectivity: ROCK2 over ROCK1, from Kd values, N/C = not calculated; for Kd: equilibrium dissociation constant, 11-point 3-fold dilution series, read-out: Kd (μM) ROCK2
T2 construct: purchased DiscoverX (KINOMEscan KdELECT service); host or cells: E. coli BL21-derived (T7 phage) or HEK-293
T2 sequence (O75116 whole entry): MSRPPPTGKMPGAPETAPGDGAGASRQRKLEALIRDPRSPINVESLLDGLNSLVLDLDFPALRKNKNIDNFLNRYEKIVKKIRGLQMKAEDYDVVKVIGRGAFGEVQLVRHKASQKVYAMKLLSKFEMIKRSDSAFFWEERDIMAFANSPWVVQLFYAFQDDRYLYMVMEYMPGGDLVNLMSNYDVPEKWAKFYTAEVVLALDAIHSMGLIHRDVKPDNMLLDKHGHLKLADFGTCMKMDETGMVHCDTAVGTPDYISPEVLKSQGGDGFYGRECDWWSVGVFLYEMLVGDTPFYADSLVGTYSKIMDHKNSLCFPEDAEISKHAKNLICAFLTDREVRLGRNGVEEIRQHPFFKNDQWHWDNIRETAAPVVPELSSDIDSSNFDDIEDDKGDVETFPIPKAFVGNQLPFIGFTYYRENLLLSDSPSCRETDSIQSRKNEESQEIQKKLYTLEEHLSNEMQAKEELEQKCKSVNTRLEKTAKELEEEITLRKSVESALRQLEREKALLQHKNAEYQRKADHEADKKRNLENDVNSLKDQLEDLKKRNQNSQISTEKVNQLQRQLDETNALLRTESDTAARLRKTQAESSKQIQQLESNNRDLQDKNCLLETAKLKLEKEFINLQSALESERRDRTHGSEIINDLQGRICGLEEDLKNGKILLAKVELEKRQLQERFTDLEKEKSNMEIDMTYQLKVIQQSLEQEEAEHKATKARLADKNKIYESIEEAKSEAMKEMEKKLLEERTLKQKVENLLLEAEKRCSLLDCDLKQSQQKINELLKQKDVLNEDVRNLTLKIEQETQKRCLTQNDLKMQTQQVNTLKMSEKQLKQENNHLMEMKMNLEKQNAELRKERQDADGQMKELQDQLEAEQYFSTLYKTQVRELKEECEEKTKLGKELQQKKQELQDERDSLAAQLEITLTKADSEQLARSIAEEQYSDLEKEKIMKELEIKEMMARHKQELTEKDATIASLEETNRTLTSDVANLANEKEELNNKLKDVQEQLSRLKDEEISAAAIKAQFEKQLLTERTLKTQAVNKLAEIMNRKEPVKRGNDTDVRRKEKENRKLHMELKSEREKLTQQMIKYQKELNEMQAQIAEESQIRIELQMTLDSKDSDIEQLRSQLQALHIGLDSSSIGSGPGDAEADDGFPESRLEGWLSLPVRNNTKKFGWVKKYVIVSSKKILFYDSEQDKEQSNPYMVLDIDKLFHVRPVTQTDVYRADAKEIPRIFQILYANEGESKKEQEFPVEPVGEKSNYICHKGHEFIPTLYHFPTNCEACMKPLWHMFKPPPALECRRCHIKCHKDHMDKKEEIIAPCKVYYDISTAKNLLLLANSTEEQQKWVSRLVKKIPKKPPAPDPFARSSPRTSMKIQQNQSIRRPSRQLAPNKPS
Method: as §1

Row | SMILES | Kd [1] [µM] | ROCK 2 Selectivity [2] | Kd [2] [µM]
1 | Brc1ccc2c(c1)CN(c1nccc(-c3nccc(C#Cc4ccc5[nH]ncc5c4)n3)n1)C2 [Ex. 30, 5-((2′-(5-Bromoisoindolin-2-yl)-[2,4′-bipyrimidin]-4-yl)ethynyl)-1H-indazole] | 0.77 | 132.8 | 0.0058
2 | Fc1ccc2c(c1)CN(c1nccc(-c3nccc(C#Cc4ccc5[nH]nc(F)c5c4)n3)n1)C2 [Ex. 31, 3-Fluoro-5-((2′-(5-fluoroisoindolin-2-yl)-[2,4′-bipyrimidin]-4-yl)ethynyl)-1H-indazole] | > 30 | >411 | 0.073
3 | Fc1ccc2c(c1)CN(c1nccc(-c3nccc(C#Cc4cnc5[nH]ncc5c4)n3)n1)C2 [Ex. 32, 5-((2′-(5-Fluoroisoindolin-2-yl)-[2,4′-bipyrimidin]-4-yl)ethynyl)-1H-pyrazolo[3,4-b]pyridine] | > 30 | >103 | 0.29
4 | COc1ccc2c(c1)CN(c1nccc(-c3nccc(C#Cc4cnc5[nH]ncc5c4)n3)n1)C2 [Ex. 33, 5-((2′-(5-Methoxyisoindolin-2-yl)-[2,4′-bipyrimidin]-4-yl)ethynyl)-1H-pyrazolo[3,4-b]pyridine] | > 30 | >44.1 | 0.68
5 | Fc1ccc2c(c1)CN(c1ccnc(-c3ccnc(C#Cc4ccc5[nH]ncc5c4)n3)n1)C2 [Ex. 34, 5-((4-(5-Fluoroisoindolin-2-yl)-[2,4′-bipyrimidin]-2′-yl)ethynyl)-1H-indazole] | 0.089 | 2.87 | 0.031
6 | COCCN1CCN(c2cc3c(cn2)CN(c2nccc(-c4nccc(C#Cc5ccc6[nH]ncc6c5)n4)n2)C3)CC1 [Ex. 36, 5-((2′-(6-(4-(2-Methoxyethyl)piperazin-1-yl)-1,3-dihydro-2H-pyrrolo[3,4-c]pyridin-2-yl)-[2,4′-bipyrimidin]-4-yl)ethynyl)-1H-indazole trifluoroacetate salt] | 0.069 | 7.26 | 0.0095
7 | COCCOc1cc2c(cn1)CN(c1nccc(-c3nccc(C#Cc4ccc5[nH]ncc5c4)n3)n1)C2 [Ex. 37, 5-((2′-(6-(2-Methoxyethoxy)-1,3-dihydro-2H-pyrrolo[3,4-c]pyridin-2-yl)-[2,4′-bipyrimidin]-4-yl)ethynyl)-1H-indazole] | 5.7 | 51.8 | 0.11
8 | CN(C)CCOc1ccc2c(c1)CN(c1nccc(-c3nccc(C#Cc4ccc5[nH]ncc5c4)n3)n1)C2 [Ex. 39, 2-((2-(4-((1H-Indazol-5-yl)ethynyl)-[2,4′-bipyrimidin]-2′-yl)isoindolin-5-yl)oxy)-N,N-dimethylethanamine] | 0.67 | 25.8 | 0.026

Second part, the compound after the results:

Row | Kd [1] [µM] | ROCK 2 Selectivity [2] | Kd [2] [µM] | SMILES
9 | > 30 | >417 | 0.072 | C(#Cc1ccnc(-c2ccnc(N3Cc4c[nH]nc4C3)n2)n1)c1ccc2[nH]ncc2c1 [Ex. 35, 5-((2′-(2,6-Dihydropyrrolo[3,4-c]pyrazol-5(4H)-yl)-[2,4′-bipyrimidin]-4-yl)ethynyl)-1H-indazole]
10 | 2.8 | 4.37 | 0.64 | CN(C)C(=O)COc1cc2c(cn1)CN(c1nccc(-c3nccc(C#Cc4ccc5[nH]ncc5c4)n3)n1)C2 [Ex. 38, 2-((2-(4-((1H-indazol-5-yl)ethynyl)-[2,4′-bipyrimidin]-2′-yl)-2,3-dihydro-1H-pyrrolo[3,4-c]pyridin-6-yl)oxy)-N,N-dimethylacetamide]
11 | 12 | 144 | 0.083 | CN1CCN(c2ccc3c(c2)CN(c2nccc(-c4nccc(C#Cc5ccc6[nH]ncc6c5)n4)n2)C3)CC1 [Ex. 40, 5-((2′-(5-(4-Methylpiperazin-1-yl)isoindolin-2-yl)-[2,4′-bipyrimidin]-4-yl)ethynyl)-1H-indazole]
